These results are taken from patent US11254644B2, “Inhibitors of alpha-amino-beta-carboxymuconic acid semialdehyde decarboxylase” (TES Pharma S.r.l., priority 2014, dated 2022).

hACMSD (ACMSD1), sequence (Q8TDX5 whole entry): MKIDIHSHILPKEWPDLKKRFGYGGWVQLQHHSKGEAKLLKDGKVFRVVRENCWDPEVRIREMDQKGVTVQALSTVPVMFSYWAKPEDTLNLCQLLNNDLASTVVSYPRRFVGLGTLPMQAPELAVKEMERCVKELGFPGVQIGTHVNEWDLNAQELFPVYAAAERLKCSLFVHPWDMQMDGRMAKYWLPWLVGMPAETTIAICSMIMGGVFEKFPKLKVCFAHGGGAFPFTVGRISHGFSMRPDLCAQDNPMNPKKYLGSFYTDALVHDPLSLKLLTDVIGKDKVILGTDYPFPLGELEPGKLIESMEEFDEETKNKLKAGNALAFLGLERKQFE

The target in one experiment is hACMSD (ACMSD1) (Homo sapiens (Human), UniProt Q8TDX5). The experiment in a line: Determination of ACMSD1 inhibition, spectrophotometrical in vitro assay. The format is biochemical. As to conditions: HAA concentration of 10 μM. The protocol:
The activity of compounds as inhibitors of ACMSD1 is determined in a spectrophotometrical in vitro assay. The pre-assay mixture is incubated and a compound of Formula (I), Formula (Ia), Formula (Ib), Formula (II), or Formula (III), or a pharmaceutically acceptable salt thereof, and ACMSD1 solution is then added. The effect of ACMS concentration on the enzyme activity is investigated by varying 3-hydroxyanthranilic acid (3OH-HA) concentration in the pre-assay mixture. Kinetic parameters are calculated from the initial velocity data using a Lineweaver-Burk plot.
The activity of compounds 1-19 and 21-23 as inhibitors of ACMSD1 was determined by measuring the conversion of 3OH-Anthranilic Acid into product (i.e., ACMS) in a spectrophotometrical in vitro assay.
The pre-assay mixture consisting of 3-hydroxyanthranilic acid (3OH-HA), 3-hydroxyanthranilic acid, 3,4-diOxygenase (HAO), and a dialyzed crude extract of E. coli BL21 (DE3) cells expressing the recombinant enzyme, was incubated at 25° C. with monitoring of the increase in absorbance at 360 nm due to the formation of ACMS from 3OH-HA. After the reaction was completed within ˜2 mins, an aliquot of ACMSD1 solution (prepared and purified from Pichia Pastoris overexpressing the recombinant enzyme) was added, and the decrease in absorbance at 360 nm was followed at 15 second intervals. The effect of ACMS concentration on the enzyme activity was investigated by varying 3OH-HA concentration from 2 to 20 μM. Kinetic parameters were calculated from the initial velocity data by using the Lineweaver-Burk plot.
The rate of the decrease in absorbance caused by ACMSD1 was calculated by subtracting that of the control reaction mixture without ACMSD from that described above. One unit of ACMSD activity was indicated as the amount of enzyme that converts 1 mmol of ACMS per minute at 25° C. The absence or a reduction of ACMSD1 activity (e.g., by using ACMSD inhibitors) results in a slow ACMS-spontaneous degradation (i.e., cyclization to form quinolic acid).
The enzymatic activity was determined at a HAA concentration of 10 μM in the presence of the compounds in Table 1 below. The compounds were tested at the concentration of about 5 μM and 10 μM and the IC50 was calculated for compounds showing inhibitory activity higher than 50%.
As usually defined, the IC50 is the concentration that gives 50% inhibition. Low values mean higher potency, high ones lower potency. In turn, `Cc1nc(SCc2cccc(C(=O)O)c2)[nH]c(=O)c1C#N` [Compound 10] displayed an IC50 of 1700 nM.

Regarding `N#Cc1c(-c2cccs2)nc(SCc2cccc(C(=O)O)c2)[nH]c1=O` [Compound 4], the IC50 was found to be 12 nM.

`N#Cc1c(Cl)nc(SCc2cccc(C(=O)O)c2)nc1-c1ccccc1` [Compound 22] gave an IC50 of 1100 nM.

`N#Cc1c(-c2ccccc2)nc(SCc2ccc(C(=O)O)cc2)[nH]c1=O` [Compound 16] registered an IC50 of 110 nM.

As for `CC(Sc1nc(-c2ccccc2)c(C#N)c(=O)[nH]1)C(=O)O` (centres unmarked) [Compound 21], half-maximal inhibition (IC50) was put at 1990 nM.

`N#Cc1c(-c2cccs2)nc(SCC(=O)Nc2ccccc2O)[nH]c1=O` [Compound 23]: the IC50 is 4900 nM.

With `O=C(O)c1cccc(CSc2nc(-c3ccccc3)c(Cl)c(=O)[nH]2)c1` [Compound 13], the IC50 was 136 nM.

Take `N#Cc1c(-c2ccc(Cl)cc2)nc(SCc2ccc(C(=O)O)cc2)[nH]c1=O` [Compound 8]: the IC50 came to 82 nM.

`O=C(O)c1cccc(CSc2nc(-c3ccccc3)cc(=O)[nH]2)c1` [Compound 14] registered an IC50 of 740 nM.

For `O=C(O)c1cccc(CSc2nc(-c3cccs3)c(Br)c(=O)[nH]2)c1` [Compound 12], half-maximal inhibition (IC50) required 88 nM.

The molecule `O=C(O)c1cccc(CSc2nc(-c3ccccc3)c(Br)c(=O)[nH]2)c1` [Compound 11] yielded an IC50 of 71 nM.

For the molecule `CCOC(=O)c1cccc(CSc2nc(-c3ccc(C)cc3)c(C#N)c(=O)[nH]2)c1` [Compound 9], half-maximal inhibition (IC50) required 960 nM.

The molecule `N#Cc1c(-c2ccncc2)nc(SCc2cccc(C(=O)O)c2)[nH]c1=O` [Compound 7] showed an IC50 of 82 nM.

In turn, `N#Cc1c(-c2cccs2)nc(SCc2cccc(-c3noc(=O)[nH]3)c2)[nH]c1=O` [Compound 19] showed an IC50 of 25 nM.

In turn, `N#Cc1c(-c2ccsc2)nc(SCc2cccc(C(=O)O)c2)[nH]c1=O` [Compound 3] came in with an IC50 of 31 nM.

The molecule `N#Cc1c(-c2nccs2)nc(SCc2cccc(C(=O)O)c2)[nH]c1=O` [Compound 5] displayed an IC50 of 49 nM.

`N#Cc1c(-c2ccco2)nc(SCc2cccc(C(=O)O)c2)[nH]c1=O` [Compound 2] yielded an IC50 of 66 nM.

On to `O=C(O)c1cccc(CSc2nc(-c3cccs3)cc(=O)[nH]2)c1` [Compound 15], for which the IC50 was determined as 760 nM.

Consider `N#Cc1c(-c2cccs2)nc(SCc2cccc(CC(=O)O)c2)[nH]c1=O` [Compound 18], for which half-maximal inhibition (IC50) required 10 nM.

As to `N#Cc1c(C2CCCCC2)nc(SCc2cccc(C(=O)O)c2)[nH]c1=O` [Compound 6], the IC50 was determined as 77 nM.

The test system of the next experiment is Caspase 3/7 activity in MDCK cells. The experiment in a line: Modulation of cisplatin-induced caspase 3/7 activity in MDCK cells. The class given is cell-based. To be noted: 100 μM, in combination with cisplatin; p<0.001. The protocol:
MDCK cells are cultured in base medium to a final concentration of 10%. Cells are plated into 96 wells and 24 hours after cell plating the medium is changed with fresh medium supplemented with 1% FBS. Cisplatin is then used to induce cell injury. Different concentrations of Formula (I), Formula (Ia), Formula (Ib), Formula (II), or Formula (III), or a pharmaceutically acceptable salt thereof (in DMSO) are added in combination with cisplatin or prior to adding cisplatin. Caspase 3/7 activity (Promega) is determined according to standard procedures using a luminescent signal readout on a plate reader. Each experiment/condition is performed in triplicate. Caspase activity is analyzed as percentage effect normalized to the cisplatin alone and vehicle treated cells.
MDCK cells (MDCK (NBL-2) ATCC® CCL-34™) were cultured in base medium ATCC-formulated Eagle's Minimum Essential Medium, Catalog No. 30-2003 with fetal bovine serum (FBS) to a final concentration of 10%. […]
Caspase 3/7 activity (Promega) was determined according to standard procedures using a luminescent signal readout on a Victor V plate reader (PerkinElmer). […]
Caspase activity was analyzed as percentage effect normalized to the cisplatin alone (100%) and vehicle treated cells as 0% of caspase activity. Data were analyzed by GraphPad Software. […]
On to `N#Cc1c(-c2cccs2)nc(SCc2cccc(CC(=O)O)c2)[nH]c1=O` [Compound 18], for which the “caspase activity compared to cisplatin alone” value is listed as “decreased caspase activity in significant manner”.

Staying with this experiment, now noted: about 30 μM to about 125 μM, one hour prior to cisplatin; p<0.001.
Turning to `N#Cc1c(-c2cccs2)nc(SCc2cccc(CC(=O)O)c2)[nH]c1=O` [Compound 18], the “caspase activity compared to cisplatin alone” value was “decreased caspase activity in significant manner”.

Another experiment concerns human primary hepatocytes. In words: NAD+ content in human primary hepatocytes (LCMS/MS). The class given is cell-based. As to conditions: 0.5 μM and 5 μM; compound replaced every 24 hrs. The protocol: Primary hepatocytes are treated with different concentrations of a compound of Formula (I), Formula (Ia), Formula (Ib), Formula (II), or Formula (III), or a pharmaceutically acceptable salt thereof, or MEHP (control) after seeding. The compound is replaced every 24 hours, and then cells are directly harvested and lysed to detect NAD^+ content through LC MS/MS (liquid chromatography mass spectrometry/mass spectroscopy).
The NAD^+ concentration or content was determined in human primary hepatocytes treated with Compound 4. Vehicle (NT) was used as a control.
At least three experiments were run treating primary hepatocytes with different concentrations of Compound 4 (0.5 μM and 5 μM) after 48 hrs from seeding. Compound 4 was replaced every 24 hrs, and then cells were directly harvested and lysed with ACN/H2O (ratio 5:1). LCMS/MS was used to detect and measure NAD^+ concentration/content. […] (FIG. 1)
The NAD^+ concentration or content was determined in human primary hepatocytes treated with Compound 1 and MEHP, a known ACMSD inhibitor. MEHP was used as a control.
At least three experiments were run treating primary hepatocytes with different concentrations of Compound 1 (0.5 μM, 5 μM, and 50 μM) after 48 hrs from seeding. Compound 1 was replaced every 24 hrs, and then cells were directly harvested and lysed with ACN/H2O (ratio 5:1). […]
With `N#Cc1c(-c2cccs2)nc(SCc2cccc(C(=O)O)c2)[nH]c1=O` [Compound 4], the “ACMSD-1 inhibition, NAD+ content screening (FIG. 1)” value is given as “inhibits ACMSD-1 enzyme”.
